≈ marks a conversion by molar mass, not a printed value.
Legend:
[1] = target: i20S (20S immunoproteasome) (Homo sapiens, UniProt P20618+P28062); test: 20S proteasome assay, chymotrypsin-like activity (LLVY), i20S; format: biochemical; conditions: LLVY i20S Hu 1 h CONT: IC50 (nM), succinyl-Leu-Leu-Val-Tyr-AMC
Excerpt: (§1) Assay buffer consisted of TE buffer [20 mmol/L Tris (pH 8.0), 0.5 mmol/L EDTA] with (20S) or without (cell lysate) 0.03% SDS. Reactions were initiated by enzyme or lysate addition and monitored for AMC product formation at 27jC with a plate-based spectofluorometer (Tecan).

[2] = target: T1, LMP7 (Homo sapiens, UniProt P20618+P28062); test: ProCISE proteasome subunit assay, LMP7; format: biochemical
T1 construct: endogenous in cells; host or cells: MOLT-4
How it was run: (§2)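 MOLT-4 cell lysate was incubated with compound for 1 h at 25° C, then a subunit-binding probe was applied; probe-bound subunits were pulled down on streptavidin beads after guanidine denaturation and detected with subunit-specific antibodies by HRP chemiluminescence. Signal was normalized to protein and expressed as percent of DMSO control to fit IC50.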

[3] = Solubility pH 7; format: physicochemical; conditions: pH 7, aqueous buffer
[4] = target: c20S (constitutive 20S proteasome) (Homo sapiens, UniProt P20618+P28074); test: 20S proteasome assay, chymotrypsin-like activity (LLVY), c20S; format: biochemical; conditions: LLVY c20S Hu 1 h CONT: IC50 (nM), succinyl-Leu-Leu-Val-Tyr-AMC
Excerpt: as §1

[5] = target: T2, β5 (Homo sapiens, UniProt P20618+P28074); test: ProCISE proteasome subunit assay, β5; format: biochemical
T2 construct: endogenous in cells; host or cells: MOLT-4
How it was run: as §2

Structure (SMILES) | IC50 [1] [nM] | IC50 ([2]; MOLT4 lysate Hu 1 h) [nM] | solubility [3] [µg/mL] | IC50 [4] [nM] | IC50 ([5]; MOLT4 lysate Hu 1 h) [nM] | IC50 ([2]; ProCISE LMP7 MOLT4 lysate Hu 1 h CONT: IC50 (nM)) [nM] | IC50 ([5]; ProCISE beta5 MOLT4 lysate Hu 1 h CONT: IC50 (nM)) [nM]
COc1ccc(C[C@H](NC(=O)[C@@]2(C)CCC(=O)N2)C(=O)N[C@@H](Cc2ccccc2)C(=O)[C@@]2(C)CO2)cc1 [Compound C-3010, (R)—N—((S)-3-(4-methoxyphenyl)-1-(((S)-1-((R)-2-methyloxiran-2-yl)-1-oxo-3-phenylpropan-2-yl)amino)-1-oxopropan-2-yl)-2-methyl-5-oxopyrrolidine-2-carboxamide] | 1610 | 1160 | 1380 (≈ 2720 µM) | 4080 | 4300 |  | 
COc1ccc(C[C@H](NC(=O)[C@@H](CO)NC(=O)c2cc(C)no2)C(=O)N[C@@H](CC2CCCC2)C(=O)[C@@]2(C)CO2)cc1 [Compound C-2030, N—((R)-1-(((S)-1-(((S)-3-cyclopentyl-1-((R)-2-methyloxiran-2-yl)-1-oxopropan-2-yl)amino)-3-(4-methoxyphenyl)-1-oxopropan-2-yl)amino)-3-hydroxy-1-oxopropan-2-yl)-3-methylisoxazole-5-carboxamide] | 71.7 | 315 | 286 (≈ 502 µM) | 785 | 2130 |  | 
COc1ccc(C[C@H](NC(=O)[C@@H](C)NC(=O)C2=C(C)c3ccccc3C2)C(=O)N[C@@H](CC2CCCC2)C(=O)[C@@]2(C)CO2)cc1 [Compound C-2040, N—((R)-1-(((S)-1-(((S)-3-cyclopentyl-1-((R)-2-methyloxiran-2-yl)-1-oxopropan-2-yl)amino)-3-(4-methoxyphenyl)-1-oxopropan-2-yl)amino)-1-oxopropan-2-yl)-3-methyl-1H-indene-2-carboxamide] | 624 | 75 | 0.3 (≈ 0.499 µM) | 4610 | 3750 |  | 

Now those with a lower IC50 [1], led by results:

IC50 [1] [nM] | IC50 ([2]; MOLT4 lysate Hu 1 h) [nM] | solubility [3] [µg/mL] | IC50 [4] [nM] | IC50 ([5]; MOLT4 lysate Hu 1 h) [nM] | IC50 ([2]; ProCISE LMP7 MOLT4 lysate Hu 1 h CONT: IC50 (nM)) [nM] | IC50 ([5]; ProCISE beta5 MOLT4 lysate Hu 1 h CONT: IC50 (nM)) [nM] | Structure (SMILES)
28.9 | 52.2 | 3730 (≈ 6730 µM) | 191 | 291 |  |  | COc1ccc(C[C@H](NC(=O)[C@@H](C)NC(=O)CC(C)(C)O)C(=O)N[C@@H](Cc2ccccc2)C(=O)[C@@]2(C)CO2)cc1 [Compound C-2056, 3-hydroxy-N—((R)-1-(((S)-3-(4-methoxyphenyl)-1-(((S)-1-((R)-2-methyloxiran-2-yl)-1-oxo-3-phenylpropan-2-yl)amino)-1-oxopropan-2-yl)amino)-1-oxopropan-2-yl)-3-methylbutanamide]
40.2 | 66.7 | 725 (≈ 1270 µM) | 117 | 359 |  |  | COCOCCC(=O)N[C@@H](C)C(=O)N[C@@H](Cc1ccc(OC)cc1)C(=O)N[C@@H](Cc1ccccc1)C(=O)[C@@]1(C)CO1 [Compound C-2013, (S)-2-((S)-2-(3-(methoxymethoxy)propanamido)propanamido)-3-(4-methoxyphenyl)-N—((S)-1-((R)-2-methyloxiran-2-yl)-1-oxo-3-phenylpropan-2-yl)propanamide]
34 | 54.3 | 241 (≈ 430 µM) | 459 | 883 |  |  | CC[C@](C)(O)CC(=O)N[C@H](C)C(=O)N[C@@H](Cc1ccc(OC)cc1)C(=O)N[C@@H](CC1CCCC1)C(=O)[C@@]1(C)CO1 [Compound C-2051, (S)—N—((R)-1-(((S)-1-(((S)-3-cyclopentyl-1-((R)-2-methyloxiran-2-yl)-1-oxopropan-2-yl)amino)-3-(4-methoxyphenyl)-1-oxopropan-2-yl)amino)-1-oxopropan-2-yl)-3-hydroxy-3-methylpentanamide]
55.2 |  | 1.4 (≈ 2.3 µM) | 411 |  | 48.6 | 379 | COc1ccc(C[C@H](NC(=O)[C@@H](C)NC(=O)C2=C(C)c3ccccc3C2)C(=O)N[C@@H](Cc2ccccc2)C(=O)[C@@]2(C)CO2)cc1 [Compound C-2048, N—((R)-1-(((S)-3-(4-methoxyphenyl)-1-(((S)-1-((R)-2-methyloxiran-2-yl)-1-oxo-3-phenylpropan-2-yl)amino)-1-oxopropan-2-yl)amino)-1-oxopropan-2-yl)-3-methyl-1H-indene-2-carboxamide]

Reference: patent US9657057B2, “Dipeptide and tripeptide epoxy ketone protease inhibitors” (Onyx Therapeutics, Inc., priority 2013, dated 2017)
